Test results: patent US11697648B2, “Fused pyrimidine pyridinone compounds as JAK inhibitors” (THERAVANCE BIOPHARMA R&D IP, LLC, priority 2019, dated 2023)

Tests used:
[1] = biological target: JAK1 (Homo sapiens (Human), UniProt P23458); assay: Biochemical JAK1 kinase assay (LanthaScreen)
Summary of the method: (§1)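 GST-JAK + GFP-STAT1 peptide, HEPES pH 7.5/MgCl2/EGTA/Brij-35 buffer; cpd preincubation 1 h RT; ATP start, 1 h RT; stop with 10 mM EDTA + 2 nM Tb-anti-pSTAT1; TR-FRET 520/495. 4-parameter IC50 → pKi (Cheng-Prusoff).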

[2] = test system: IL-2 stimulated STAT5 phosphorylation in Tall-1 human T cell line (JAK3); assay: Cellular JAK3 potency assay: inhibition of IL-2 stimulated pSTAT5 in Tall-1 T cells; assay type: cell-based; settings: IL-2 stimulated pSTAT5, Tall-1 T cells
Summary of the method: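 AlphaLISA SureFire Ultra measures STAT5 Tyr694/699 phosphorylation in lysed Tall-1 human T cells. Cells were exposed to compound for 1 h at 37 °C before a 30 min IL-2 challenge (300 ng/ml final). Values are pIC50 means with standard deviation from signal-versus-concentration curves.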

[3] = biological target: JAK3 (Homo sapiens (Human), UniProt P52333); assay: Biochemical JAK3 kinase assay (LanthaScreen); settings: for JAK3 (pKi)-JAK1 (pKi): selectivity JAK3 over JAK1, difference of pKi
Sequence of JAK3 (P52333 whole entry): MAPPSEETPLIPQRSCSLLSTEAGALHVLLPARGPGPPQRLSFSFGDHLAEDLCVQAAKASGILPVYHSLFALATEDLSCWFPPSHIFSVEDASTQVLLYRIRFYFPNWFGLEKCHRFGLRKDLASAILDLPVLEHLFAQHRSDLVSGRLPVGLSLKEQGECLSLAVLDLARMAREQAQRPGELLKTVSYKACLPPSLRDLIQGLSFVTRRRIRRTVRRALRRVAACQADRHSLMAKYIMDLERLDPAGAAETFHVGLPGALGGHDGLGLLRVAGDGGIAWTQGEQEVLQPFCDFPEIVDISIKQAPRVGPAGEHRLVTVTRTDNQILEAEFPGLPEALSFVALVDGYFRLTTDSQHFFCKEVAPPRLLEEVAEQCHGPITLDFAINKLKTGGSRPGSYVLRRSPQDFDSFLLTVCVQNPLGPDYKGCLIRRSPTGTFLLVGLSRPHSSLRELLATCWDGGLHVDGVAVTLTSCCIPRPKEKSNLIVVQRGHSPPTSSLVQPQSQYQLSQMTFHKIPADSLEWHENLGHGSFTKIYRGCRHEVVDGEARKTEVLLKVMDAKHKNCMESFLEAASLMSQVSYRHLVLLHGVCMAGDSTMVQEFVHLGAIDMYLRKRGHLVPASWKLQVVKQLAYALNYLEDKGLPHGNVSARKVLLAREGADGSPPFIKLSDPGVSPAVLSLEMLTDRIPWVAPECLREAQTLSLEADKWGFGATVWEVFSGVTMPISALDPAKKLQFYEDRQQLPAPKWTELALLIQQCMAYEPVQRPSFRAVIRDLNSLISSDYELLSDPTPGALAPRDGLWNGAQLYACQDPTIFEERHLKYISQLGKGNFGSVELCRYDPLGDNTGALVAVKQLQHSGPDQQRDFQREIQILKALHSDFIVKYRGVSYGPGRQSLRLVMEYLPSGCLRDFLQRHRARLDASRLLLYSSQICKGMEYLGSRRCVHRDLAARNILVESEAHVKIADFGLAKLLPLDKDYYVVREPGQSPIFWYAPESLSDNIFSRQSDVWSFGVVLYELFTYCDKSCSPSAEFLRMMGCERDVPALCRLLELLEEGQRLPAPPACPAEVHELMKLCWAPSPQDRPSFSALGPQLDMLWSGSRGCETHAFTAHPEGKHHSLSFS
Summary of the method: as §1

[4] = biological target: JAK2 (Homo sapiens (Human), UniProt O60674); assay: Biochemical JAK2 kinase assay (LanthaScreen)
Sequence of JAK2 (O60674 whole entry): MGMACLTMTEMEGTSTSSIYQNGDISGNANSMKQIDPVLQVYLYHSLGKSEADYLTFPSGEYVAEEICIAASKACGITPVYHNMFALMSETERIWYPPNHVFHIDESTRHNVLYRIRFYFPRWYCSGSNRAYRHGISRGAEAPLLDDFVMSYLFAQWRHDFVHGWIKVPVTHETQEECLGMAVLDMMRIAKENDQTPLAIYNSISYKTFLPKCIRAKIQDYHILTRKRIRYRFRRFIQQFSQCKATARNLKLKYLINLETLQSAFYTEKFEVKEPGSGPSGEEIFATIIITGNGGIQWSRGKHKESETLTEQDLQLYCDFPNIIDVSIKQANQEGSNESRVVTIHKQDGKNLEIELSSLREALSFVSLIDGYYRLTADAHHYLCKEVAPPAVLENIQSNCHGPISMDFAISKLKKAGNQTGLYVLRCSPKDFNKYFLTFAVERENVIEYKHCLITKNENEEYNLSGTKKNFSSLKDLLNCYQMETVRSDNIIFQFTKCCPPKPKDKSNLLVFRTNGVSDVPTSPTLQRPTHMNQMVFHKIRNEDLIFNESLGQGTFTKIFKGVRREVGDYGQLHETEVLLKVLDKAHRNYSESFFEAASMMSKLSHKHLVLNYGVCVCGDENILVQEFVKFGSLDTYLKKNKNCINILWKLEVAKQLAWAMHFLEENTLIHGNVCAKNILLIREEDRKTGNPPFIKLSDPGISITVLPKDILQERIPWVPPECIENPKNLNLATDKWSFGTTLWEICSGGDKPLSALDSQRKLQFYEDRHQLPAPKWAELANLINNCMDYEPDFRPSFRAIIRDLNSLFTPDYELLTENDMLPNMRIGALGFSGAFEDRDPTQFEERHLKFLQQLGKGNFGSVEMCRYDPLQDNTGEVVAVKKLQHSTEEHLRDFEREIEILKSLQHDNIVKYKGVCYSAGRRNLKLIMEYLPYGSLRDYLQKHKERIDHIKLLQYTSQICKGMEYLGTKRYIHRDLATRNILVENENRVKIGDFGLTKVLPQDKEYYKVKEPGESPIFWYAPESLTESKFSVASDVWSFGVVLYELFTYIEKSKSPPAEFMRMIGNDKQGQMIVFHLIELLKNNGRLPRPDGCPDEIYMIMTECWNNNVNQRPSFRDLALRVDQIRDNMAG
Summary of the method: as §1

[5] = biological target: Tyk2 (Homo sapiens (Human), UniProt P29597); assay: Biochemical Tyk2 kinase assay (LanthaScreen)
Sequence of Tyk2 (P29597 whole entry): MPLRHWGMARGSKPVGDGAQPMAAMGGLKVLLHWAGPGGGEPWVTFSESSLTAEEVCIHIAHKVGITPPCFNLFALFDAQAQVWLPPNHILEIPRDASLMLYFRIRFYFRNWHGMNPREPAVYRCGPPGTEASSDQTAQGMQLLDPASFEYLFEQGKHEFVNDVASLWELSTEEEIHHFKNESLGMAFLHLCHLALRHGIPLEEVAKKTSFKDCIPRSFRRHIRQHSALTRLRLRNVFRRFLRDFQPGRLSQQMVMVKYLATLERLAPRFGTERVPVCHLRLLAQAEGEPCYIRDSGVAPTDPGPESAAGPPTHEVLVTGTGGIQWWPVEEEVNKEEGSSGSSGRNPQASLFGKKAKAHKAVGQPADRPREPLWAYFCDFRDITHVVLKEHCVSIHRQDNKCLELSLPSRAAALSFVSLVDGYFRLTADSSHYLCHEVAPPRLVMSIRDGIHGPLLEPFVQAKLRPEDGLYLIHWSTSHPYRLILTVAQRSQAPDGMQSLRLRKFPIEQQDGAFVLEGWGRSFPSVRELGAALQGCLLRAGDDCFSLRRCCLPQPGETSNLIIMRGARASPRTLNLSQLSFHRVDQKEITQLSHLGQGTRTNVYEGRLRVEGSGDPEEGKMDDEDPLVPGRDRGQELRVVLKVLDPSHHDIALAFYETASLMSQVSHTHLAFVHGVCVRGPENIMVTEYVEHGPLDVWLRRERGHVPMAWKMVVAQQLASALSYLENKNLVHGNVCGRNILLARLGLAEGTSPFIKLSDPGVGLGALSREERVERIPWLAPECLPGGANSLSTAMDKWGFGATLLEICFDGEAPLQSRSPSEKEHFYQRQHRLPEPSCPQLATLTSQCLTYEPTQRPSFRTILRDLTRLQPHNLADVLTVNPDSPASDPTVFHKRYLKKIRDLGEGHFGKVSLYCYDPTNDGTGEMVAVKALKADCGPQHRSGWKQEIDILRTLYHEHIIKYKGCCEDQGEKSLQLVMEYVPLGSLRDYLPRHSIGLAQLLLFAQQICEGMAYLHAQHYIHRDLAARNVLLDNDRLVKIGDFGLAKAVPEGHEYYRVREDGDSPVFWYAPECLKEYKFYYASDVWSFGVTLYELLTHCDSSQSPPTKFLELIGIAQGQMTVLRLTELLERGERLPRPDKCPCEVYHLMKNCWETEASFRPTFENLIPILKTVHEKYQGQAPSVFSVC
Summary of the method: as §1

[6] = test system: Caco-2 cell monolayers; assay: Caco-2 permeation assay; assay type: in vitro ADME; settings: 5 μM, A-B direction, with Verapamil (25 μM)
Protocol: Assay 4: Caco-2 Permeation Assay
The Caco-2 permeation assay was performed to model the ability of test compounds to pass through the intestine and get into the blood stream after oral administration. The rate at which test compounds in solution permeate a cell monolayer designed to mimic the tight junction of human small intestinal monolayers was determined.
CacoReady 24-well transwell plates were obtained from ADMEcell (Alameda, Calif.). The compounds were evaluated at a concentration of 5 μM from 10 mM DMSO stock solutions in duplicate (n=2). The passive permeability of the compounds tested was evaluated using Caco-2 cell monolayers along with Verapamil (25 μM) to inhibit P-gp transport proteins in the apical to basolateral (A-B) direction. The experiment was conducted in a 37° C., 5% CO2 incubator. Caco-2 culture media consisted of standard filtered DMEM, FCS 10%, L-Glutamine 1% and PenStrep 1%. Basal assay plate was prepared by adding 750 μL of transport buffer to A-B wells. A CacoReady™ plate was prepared by removing the Caco-2 media from the apical wells and replacing with fresh transport media (200 μL repeated for a total of 3 washes). Blank media (200 μL) was then replaced with diluted compound for A-B wells. To begin the incubation, the basal plate was removed from the incubator and the apical section was added on top of it. Samples (40 μL) were collected from the apical and basal compartments for time zero (t0). Samples were collected again after 120 minutes (t120) from the apical and basal compartments. All samples were diluted and prepared for bioanalysis by LC-MS/MS. The permeation coefficient (Kp, mean A to B+ Verapamil Papparent) in cm/sec was calculated as dQ (flux)/(dt×Area×concentration).
In this assay, a Kp value less than about 5×10^−6 cm/sec is considered favorable to minimize systemic exposure and target the colon. A Kp value less than about 10×10^−6 cm/sec may also be sufficient to minimize systemic exposure and target the colon.

Sequence of JAK1 (P23458 whole entry): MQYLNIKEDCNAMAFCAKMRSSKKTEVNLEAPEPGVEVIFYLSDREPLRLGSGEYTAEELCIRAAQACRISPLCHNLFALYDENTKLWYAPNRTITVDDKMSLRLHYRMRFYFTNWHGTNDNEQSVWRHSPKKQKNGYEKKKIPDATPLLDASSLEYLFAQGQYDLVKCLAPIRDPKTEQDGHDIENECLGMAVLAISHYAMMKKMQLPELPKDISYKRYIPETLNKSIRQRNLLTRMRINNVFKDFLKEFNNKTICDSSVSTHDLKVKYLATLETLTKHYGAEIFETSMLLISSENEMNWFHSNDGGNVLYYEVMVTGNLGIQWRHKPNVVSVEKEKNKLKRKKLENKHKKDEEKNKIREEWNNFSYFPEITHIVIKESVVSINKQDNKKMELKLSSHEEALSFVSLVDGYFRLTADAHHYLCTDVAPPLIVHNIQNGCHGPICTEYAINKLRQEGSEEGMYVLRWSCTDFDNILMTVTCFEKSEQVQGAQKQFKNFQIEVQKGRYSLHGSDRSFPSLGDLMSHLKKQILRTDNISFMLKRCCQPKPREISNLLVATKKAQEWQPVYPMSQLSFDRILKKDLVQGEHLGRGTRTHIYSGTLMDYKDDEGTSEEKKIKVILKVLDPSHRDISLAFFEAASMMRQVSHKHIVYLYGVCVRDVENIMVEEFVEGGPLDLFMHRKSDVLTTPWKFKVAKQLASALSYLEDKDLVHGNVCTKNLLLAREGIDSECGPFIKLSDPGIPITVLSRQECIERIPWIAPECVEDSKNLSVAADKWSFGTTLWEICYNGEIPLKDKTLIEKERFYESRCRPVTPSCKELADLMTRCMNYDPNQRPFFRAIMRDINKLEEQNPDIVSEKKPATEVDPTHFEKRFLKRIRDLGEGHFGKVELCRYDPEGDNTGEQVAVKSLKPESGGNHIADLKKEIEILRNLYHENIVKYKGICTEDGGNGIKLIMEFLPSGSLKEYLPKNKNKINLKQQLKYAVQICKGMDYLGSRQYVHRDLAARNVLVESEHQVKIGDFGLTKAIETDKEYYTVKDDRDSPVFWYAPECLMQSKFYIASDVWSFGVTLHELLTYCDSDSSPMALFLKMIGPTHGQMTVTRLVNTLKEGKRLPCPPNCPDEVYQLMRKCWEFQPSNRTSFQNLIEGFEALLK

| SMILES | JAK 1 (pKi) [1] | Tall-1 (pIC50) [2] | JAK 3 (pKi) [3] | JAK3 (pKi)-JAK1 (pKi) [3] | JAK 2 (pKi) [4] | Tyk 2 (pKi) [5] | Caco Kp [6] |
| --- | --- | --- | --- | --- | --- | --- | --- |
| C=CC(=O)N1CC(CCn2c(=O)ccc3cnc(Nc4ccc(N5CCN(C(C)=O)C[C@H]5C)cc4)nc32)C1 [Example 10, (R)-2-((4-(4-acetyl-2-methylpiperazin-1-yl)phenyl)amino)-8-(2-(1-acryloylazetidin-3-yl)ethyl)pyrido[2,3-d]pyrimidin-7(8H)-one] | E (E represents a pKi value of 7 or below (Ki of 100 nM or above)) | A (A represents a pIC50 value≥7.5 (IC50≤32 nM)) | A (A represents a pKi value≥10 (Ki≤0.1 nM)) | A (A represents a value of 3 or above) | E (E represents a pKi value of 7 or below (Ki of 100 nM or above)) | E (E represents a pKi value of 7 or below (Ki of 100 nM or above)) | A (A represents a value below 5×10^−6 cm/sec) |
| C=CC(=O)N1CC(CCn2c(=O)ccc3cnc(Nc4ccc(N5CCN(C)CC5)cn4)cc32)C1 [Example 14] | E (E represents a pKi value of 7 or below (Ki of 100 nM or above)) | A (A represents a pIC50 value≥7.5 (IC50≤32 nM)) | B (B represents pKi value between 9 and 10 (Ki between 1 nM and 0.1 nM)) | A (A represents a value of 3 or above) | E (E represents a pKi value of 7 or below (Ki of 100 nM or above)) | E (E represents a pKi value of 7 or below (Ki of 100 nM or above)) | A (A represents a value below 5×10^−6 cm/sec) |
| C=CC(=O)N1CCN(CCn2c(=O)ccc3cnc(Nc4cnn(C)c4)nc32)CC1 [Example 16] | E (E represents a pKi value of 7 or below (Ki of 100 nM or above)) | C (C represents a pIC50 value between 6 and 6.7 (IC50 between 1 μM and 200 nM)) | B (B represents pKi value between 9 and 10 (Ki between 1 nM and 0.1 nM)) | A (A represents a value of 3 or above) | E (E represents a pKi value of 7 or below (Ki of 100 nM or above)) | E (E represents a pKi value of 7 or below (Ki of 100 nM or above)) | A (A represents a value below 5×10^−6 cm/sec) |
| C=CC(=O)N1CC(CCn2c(=O)ccc3cnc(Nc4ccccc4)nc32)C1 [Example 18] | E (E represents a pKi value of 7 or below (Ki of 100 nM or above)) | B (B represents a pC50 value between 6.7 (included) and 7.5 (IC50 between 200 nM and 32 nM)) | A (A represents a pKi value≥10 (Ki≤0.1 nM)) | A (A represents a value of 3 or above) | E (E represents a pKi value of 7 or below (Ki of 100 nM or above)) | E (E represents a pKi value of 7 or below (Ki of 100 nM or above)) | C (C represents a value between 10×10^−6 and 30×10^−6 cm/sec) |
| C=CC(=O)N1CC(CCn2c(=O)ccc3cnc(Nc4cccc(OC)c4)nc32)C1 [Example 19] | E (E represents a pKi value of 7 or below (Ki of 100 nM or above)) | C (C represents a pIC50 value between 6 and 6.7 (IC50 between 1 μM and 200 nM)) | B (B represents pKi value between 9 and 10 (Ki between 1 nM and 0.1 nM)) | A (A represents a value of 3 or above) | E (E represents a pKi value of 7 or below (Ki of 100 nM or above)) | E (E represents a pKi value of 7 or below (Ki of 100 nM or above)) | C (C represents a value between 10×10^−6 and 30×10^−6 cm/sec) |
| C=CC(=O)N1CC(CCn2c(=O)ccc3cnc(Nc4cnn(CCOC(F)F)c4)nc32)C1 [Example 25] | E (E represents a pKi value of 7 or below (Ki of 100 nM or above)) | C (C represents a pIC50 value between 6 and 6.7 (IC50 between 1 μM and 200 nM)) | B (B represents pKi value between 9 and 10 (Ki between 1 nM and 0.1 nM)) | A (A represents a value of 3 or above) | E (E represents a pKi value of 7 or below (Ki of 100 nM or above)) | E (E represents a pKi value of 7 or below (Ki of 100 nM or above)) | B (B represents a value between 5×10^−6 and 10×10^−6 cm/sec) |
| C=CC(=O)N1CCN(CCn2c(=O)ccc3cnc(Nc4cnn(C)c4)nc32)[C@@H](C)C1 [Example 30] | E (E represents a pKi value of 7 or below (Ki of 100 nM or above)) | B (B represents a pC50 value between 6.7 (included) and 7.5 (IC50 between 200 nM and 32 nM)) | A (A represents a pKi value≥10 (Ki≤0.1 nM)) | A (A represents a value of 3 or above) | E (E represents a pKi value of 7 or below (Ki of 100 nM or above)) | E (E represents a pKi value of 7 or below (Ki of 100 nM or above)) | A (A represents a value below 5×10^−6 cm/sec) |
| C=CC(=O)N1CCN(CCn2c(=O)ccc3cnc(Nc4cnn(C)c4)nc32)CC12CC2 [Example 32] | E (E represents a pKi value of 7 or below (Ki of 100 nM or above)) | B (B represents a pC50 value between 6.7 (included) and 7.5 (IC50 between 200 nM and 32 nM)) | B (B represents pKi value between 9 and 10 (Ki between 1 nM and 0.1 nM)) | A (A represents a value of 3 or above) | E (E represents a pKi value of 7 or below (Ki of 100 nM or above)) | E (E represents a pKi value of 7 or below (Ki of 100 nM or above)) | B (B represents a value between 5×10^−6 and 10×10^−6 cm/sec) |
| C=CC(=O)N1CC(CCn2c(=O)ccc3cnc(Nc4cnn(C5CCN(C)CC5)c4)nc32)C1 [Example 51] | E (E represents a pKi value of 7 or below (Ki of 100 nM or above)) | B (B represents a pC50 value between 6.7 (included) and 7.5 (IC50 between 200 nM and 32 nM)) | B (B represents pKi value between 9 and 10 (Ki between 1 nM and 0.1 nM)) | A (A represents a value of 3 or above) | E (E represents a pKi value of 7 or below (Ki of 100 nM or above)) | E (E represents a pKi value of 7 or below (Ki of 100 nM or above)) | A (A represents a value below 5×10^−6 cm/sec) |
| C=CC(=O)N1CC(CCn2c(=O)ccc3cnc(Nc4cnn(CCN(CC)CC)c4)nc32)C1 [Example 55] | E (E represents a pKi value of 7 or below (Ki of 100 nM or above)) | B (B represents a pC50 value between 6.7 (included) and 7.5 (IC50 between 200 nM and 32 nM)) | B (B represents pKi value between 9 and 10 (Ki between 1 nM and 0.1 nM)) | A (A represents a value of 3 or above) | E (E represents a pKi value of 7 or below (Ki of 100 nM or above)) | E (E represents a pKi value of 7 or below (Ki of 100 nM or above)) | A (A represents a value below 5×10^−6 cm/sec) |
